# Like-named read-outs stand apart in the source and are kept apart here. No end group written: not given here.
# How the values were obtained:
# [1] = tested on: E. coli ATCC 25922
# In short: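 MIC was determined by broth microdilution in cation-adjusted Mueller–Hinton broth at 5 × 10^5 cells/mL. Peptides were tested at 1024–0.03125 µg/mL final, with 18 h incubation at 37 °C with shaking. Growth was scored visually and by OD600. Medium was supplemented with 150 mM NaCl or 1.25 mM CaCl2.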
# [2] = tested on: A. baumannii RKI 19/09; test: microbe, parasite or virus in culture; type: cell-based, Acinetobacter baumannii
# Method: (§1) The strains that were used in this study (Table 2 and Table S1) were cultivated at 37 °C in cation-adjusted Mueller–Hinton broth (CAMB) in Erlenmeyer flasks, or on the same medium with agar in Petri dishes. Exceptionally, Mycobacterium smegmatis was cultivated at 37 °C in brain heart infusion (BHI) medium that was supplemented with 1% Tween-80 in Erlenmeyer flasks, or on the same medium lacking detergent but with agar in Petri dishes. Strains listed with Robert Koch Institute (RKI) strain numbers are clinical isolates from the RKI strain collection originating from hospitalized patients in Germany. The remaining strains originated from the Sanofi strain collection and they were originally purchased from the American Type Culture Collection or the German Collection of Microorganisms and Cell Cultures. Meropenem/colistin-resistant strains were maintained, as described above, with the appropriate antibiotic added at levels below the minimal inhibitory concentration (MIC).
# (§2) The MIC values were determined in 384-well microtiter plates with an assay volume of 20 µL. Immediately before each assay, the cultures of test organisms (bacteria grown for 18 h, Candida albicans and M. smegmatis grown for 48 h) were diluted with the appropriate medium to a density of 1 × 10^6 cells/mL (C. albicans), 1 × 10^5 cells/mL (M. smegmatis) or 5 × 10^5 cells per mL (other species). […] We transferred 2-µL aliquots from this dilution series to new 384-well microtiter plates while using a CyBio-Well 384-channel automated pipettor (Analytic Jena, Jena, Germany) and added 18 µL of the diluted suspension of each test species using a Viafill reagent dispenser (Integra), thus reducing the final peptide concentration 10-fold to the range 1024–0.03125 µg/mL. […] The growth of M. smegmatis was measured using the BacTiter-Glo luminescence test system (Promega, Madison, WI, USA). The growth of the other species was determined by visual inspection of the microtiter plate and turbidimetry based on the optical density at 600 nm (OD600). The MIC was defined as the peptide concentration at which no bacterial growth was observed. We supplemented the test medium with either 150 mM NaCl or 1.25 mM CaCl2 to represent monovalent and divalent cations to simulate physiological conditions.
# [3] = tested on: HepG2 cells; test: Cytotoxicity (ATP quantification and neutral red uptake)
# Method: The cytotoxicity of the AMPs was determined in 96-well microtiter plates with an assay volume of 200 µL. The peptides were dissolved in PBS and a 1:2 dilution series in DMEM-F12 medium (supplemented with 1% nonessential amino acids, 1% sodium pyruvate, and 5% heat-inactivated fetal calf serum) was prepared in nine steps to produce test concentrations of 400, 200, 100, […], 12.5, 6.25, 3.13, and 1.56 μM (1655–6.46 µg/mL for EtCec1-a, 1713–6.68 µg/mL for EtCec2-a, 1622–6.33 µg/mL for EtCec3-a, 2661–10.38 µg/mL for EtDip). Stocks of the mycoplasma-free HepG2 cell line HB-8065 (ATCC) stored in liquid nitrogen were seeded at a density of 20,000 cells/well into 96-well microplates in 100 μL DMEM-F12 supplemented as above. After incubation overnight at 37 ± 1 °C in a 5% CO2 atmosphere, 100 μL of the test solution was added per well in six replicates. Ketoconazole was used as a positive control and PBS as a negative control. The plates were incubated for 24 h, as above, and the cell viability was assessed using the luminescent CellTiter-Glo ATP monitoring kit (Promega) to determine the quantity of ATP.
# HepG2 cells and peptides were prepared as described above, and cell viability was assessed based on the ability of lysosomes to store the dye neutral red (Sigma–Aldrich, ST. Louis, MO, USA). The cells were incubated for 3 h with a neutral red solution, washed twice, and lysed. After complete lysis, the quantity of neutral red was determined by measuring the absorption at 540 nm while using a Tecan Genios Pro plate reader.
# [4] = tested on: K. pneumoniae RKI 93/10; test: microbe, parasite or virus in culture; type: cell-based, Klebsiella pneumoniae
# Method: as §1, §2
# [5] = tested on: Acinetobacter baumannii ATCC 19606; type: cell-based
# In short: (§3)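 Broth microdilution in cation-adjusted Mueller–Hinton broth at 37 °C, with 18 h cultures diluted to 5 × 10^5 cells/mL and final peptide concentrations of 1024–0.03125 µg/mL. Growth was scored visually and by OD600. MIC is the lowest concentration with no growth; medium was optionally supplemented with 150 mM NaCl or 1.25 mM CaCl2.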
# [6] = tested on: Pseudomonas aeruginosa ATCC 27853; type: cell-based
# In short: as §3
# [7] = tested on: Enterobacter cloacae RKI 146/09; test: microbe, parasite or virus in culture; type: cell-based
# Method: as §1, §2
# [8] = tested on: Klebsiella oxytoca RKI 52/07; type: cell-based
# In short: as §3
# [9] = CAMB + 0.075 µg/mL colistin (Col), n=3
# [10] = CAMB adjusted to 150 mM NaCl, n=3
# [11] = CAMB + A000173039A [0.25 µg/mL]
# [12] = CAMB + A000499933A [0.0625 µg/mL]
# [13] = CAMB + A000500059A [0.0625 µg/mL]
# [14] = CAMB + A000500146A [0.0625 µg/mL]
# [15] = CAMB + Colistin E1 [0.016 µg/mL]
# [16] = CAMB + Colistin E2 [0.016 µg/mL]
# [17] = HepG2, 24 h, cell viability >80%
Molecule,"MIC [7, 9] [µg/mL]","MIC [1, 9] [µg/mL]",MIC ([1]; CAMB + A000160918 [4 µg/mL]) [µg/mL],MIC ([1]; CAMB + A000161246 [4 µg/mL]) [µg/mL],MIC ([1]; CAMB + A000173031A [4 µg/mL]) [µg/mL],MIC ([1]; CAMB + A000173033A [4 µg/mL]) [µg/mL],"MIC [1, 11] [µg/mL]",MIC ([1]; CAMB + A000173380A [4 µg/mL]) [µg/mL],MIC ([1]; CAMB + A000498432A [4 µg/mL]) [µg/mL],"MIC [1, 12] [µg/mL]","MIC [1, 13] [µg/mL]","MIC [1, 14] [µg/mL]",MIC ([1]; CAMB + A000501181A [4 µg/mL]) [µg/mL],"MIC [1, 15] [µg/mL]","MIC [1, 16] [µg/mL]",MIC ([1]; CAMB + PMB [0.016 µg/mL]) [µg/mL],MIC ([1]; CAMB + PMBN [4 µg/mL]) [µg/mL],"MIC ([1]; CAMB, 18 h, 37 °C, n = 4) [µg/mL]","MIC ([1]; Table 6, CAMB) [µg/mL]","MIC [2, 9] [µg/mL]",also measured
GFLKKIGKKLEGAVQRTRDATIQTIAVAQAAANVAATAKQ-NH2 [EtCec1-NH2],–,–,–,–,–,–,–,–,–,–,–,–,–,–,–,–,–,–,–,–,"MIC ([1]; ATCC 25922, 18 h): 8 µg/mL; MIC ([2]; RKI 19/09, 18 h): 4 µg/mL; NOEC [3]: greater than 1655 µg/mL; MIC ([4]; RKI 93/10, 18 h): 8 µg/mL; MIC ([5]; ATCC 19606, 18 h): 8 µg/mL; MIC ([6]; ATCC 27853, 18 h): 32 µg/mL"
GWLRDFGKRIERTGQNIRDATIQTIGIAQEAANVAATLK-NH2 [EtCec2-NH2],32,4,>256,>256,>256,>256,>256,>256,>256,128,256,4,256,4,2,2,>256,32,32,8,"MIC [7, 10]: 64 µg/mL; MIC ([7]; Table 4, CAMB, n=3): 32 µg/mL; MIC [1, 10]: 32 µg/mL; MIC ([1]; Table 4, CAMB, n=3): 32 µg/mL; MIC [2, 10]: 16 µg/mL; MIC ([2]; Table 4, CAMB, n=3): 8 µg/mL; NOEC [3, 17]: 535 µg/mL; MIC [4, 9]: 8 µg/mL; MIC [4, 10]: 256 µg/mL; MIC ([4]; Table 4, CAMB, n=3): 64 µg/mL; MIC [5, 9]: 8 µg/mL; MIC [5, 10]: 8 µg/mL; MIC ([5]; CAMB, 18 h, 37 °C, n = 4): 8 µg/mL; MIC ([5]; Table 4, CAMB, n=3): 8 µg/mL; MIC ([6]; CAMB, 18 h, 37 °C, n = 4): >1024 µg/mL; MIC [8, 9]: 2 µg/mL; MIC ([8]; Table 5, CAMB, n=3): 32 µg/mL"
"QFNMQGGGSPRQGFDVNANARFPIWQSQNARNSVHGTASYAQHLGGPYGNSRPNFGGGLQFT [EtDip, diptericin-like peptide of Eristalis tenax]",>1024,4,>256,>256,>256,>256,>256,>256,>256,>256,>256,4,>256,>256,2,2,>256,>1024,>256,1024,"MIC ([7]; Table 5, CAMB, n=3): >1024 µg/mL; MIC ([1]; Table 5, CAMB, n=3): >1024 µg/mL; MIC ([2]; Table 5, CAMB, n=3): >1024 µg/mL; NOEC [3, 17]: > 1330 µg/mL; MIC [4, 9]: >1024 µg/mL; MIC ([4]; Table 5, CAMB, n=3): >1024 µg/mL; MIC [5, 9]: >1024 µg/mL; MIC ([5]; CAMB, 18 h, 37 °C, n = 4): >1024 µg/mL; MIC ([5]; Table 5, CAMB, n=3): >1024 µg/mL; MIC ([6]; CAMB, 18 h, 37 °C, n = 4): >1024 µg/mL; MIC [8, 9]: 4 µg/mL; MIC ([8]; Table 5, CAMB, n=3): >1024 µg/mL"
"C[C@@H](O)[C@H]1C(=O)N2C(C(=O)O)=C(S[C@@H]3CN[C@H](C(=O)N(C)C)C3)[C@H](C)[C@H]12 [MEM, meropenem]",–,–,–,–,–,–,–,–,–,–,–,–,–,–,–,–,–,–,–,–,"MIC ([7]; Enterobacter cloacae, RKI146/09): 16 µg/mL; MIC ([2]; Acinetobacter baumannii, RKI19/09, Table S1, RKI 19/09, read-out: MIC): > 64 µg/mL; MIC ([4]; Klebsiella pneumoniae, RKI93/10): 64 µg/mL; MIC ([8]; Table S1, RKI 52/07): 32 µg/mL"
